{"source": "patent US20190365728A1", "about": "“PHARMACEUTICAL COMPOSITION COMPRISING BETAHISTINE” (Otolanum AG, priority 2017, published 2019)", "key": {"[1]": {"assay": "Pharmacokinetic profile in beagle dogs after single oral, intranasal and intravenous betahistine", "type": "in vivo", "experimental": "In this study, the pharmacokinetic profile of betahistine was evaluated after a single dose administration of betahistine in male and female beagle dogs (age 5-7 months; weight of 5-11 kg, within a range of 3 kg for each sex) for three routes of administration: oral, intranasal, and intravenous.\nOn Day 1 of the study, betahistine (BH) was delivered orally at a dose of 12 mg/kg, 24 mg/kg, or 48 mg/kg. Each treatment group comprised 8 animals (4 males and 4 females). For pharmacokinetic assessment, plasma samples were collected prior to dosing, and then at 5, 10, 20 and 30 min, 1, 2, 3, 6, 24 hours after dosing.\nOn Day 8 of the study, the animals that received oral BH at a dose of 12 mg/kg were administered the test betahistine composition intranasally at a dose of 40 mg betahistine dihydrochloride; the animals that received oral BH at a dose of 24 mg/kg were administered the test betahistine composition intranasally at a dose of 80 mg betahistine dihydrochloride; and the animals that received oral BH at a dose of 48 mg/kg were administered the test betahistine composition intranasally at a dose of 120 mg betahistine dihydrochloride. The test betahistine composition was delivered intranasally in a single dose via an Aptar nasal spray pump device at a total dose level of 40, 80 and 120 mg of betahistine dihydrochloride. Plasma samples were collected prior to dosing, and then at 5, 10, 20 and 30 min, 1, 2, 3, 6, 24 hours after dosing.\nOn Day 15 of the study, the animals that received oral BH at a dose of 12 mg/kg and the test betahistine composition intranasally at a dose of 40 mg betahistine dihydrochloride were administered a bolus intravenous injection of betahistine at a dose of 0.44 mg/kg. Plasma samples were collected prior to dosing, and then at 5, 10, 20 and 30 min, 1, 2, 3, 6, 24 hours after dosing.\nBetahistine 13CD3 dihydrochloride and 2-pyridylacetic acid-D4 hydrochloride were used as respective internal standards. The calibration range for betahistine was 0.05-250 ng/mL and for 2-PAA 2.00-3000 ng/mL using a plasma sample volume of 0.50 mL.\nFor determination of betahistine, the method involved liquid-liquid extraction, for 2-PAA, the method involved protein precipitation. Plasma samples were prepared for betahistine by extraction under basic conditions with an organic solvent, then the organic phase was dried, reconstituted and transferred for LC/MS-MS analysis. […] Sample analysis was performed using reversed phase chromatography."}, "[2]": {"assay": "Single-dose and 14-day repeat-dose toxicology/toxicokinetic study of intranasal betahistine in beagle dogs", "type": "in vivo", "experimental": "Sample analysis was conducted using reversed phase chromatography."}, "[3]": {"conditions": "metabolite of betahistine, background statement; cited from earlier work"}, "[4]": {"assay": "Minor metabolites HEP and AEP in human plasma (LC-MS/MS)", "type": "in vivo", "experimental": "For the first time it was also possible to determine the two minor betahistine metabolites aminoethylpyridine (AEP) and hydroxyethylpyridine (HEP) in human plasma.\nHEP and AEP concentrations were determined using liquid chromatographic tandem mass spectrometry (SCIEX API 4000) with a validated method. HEP-d4 and AEP-d4 dihydrochloride served as internal standards. […] The limit of quantitation was 1 ng/mL in case of HEP and 10 pg/mL in case of AEP."}, "[5]": {"assay": "Relative bioavailability of intranasal vs oral betahistine in humans (Example 3 vs Barak et al.)", "type": "in vivo", "conditions": "human", "experimental": "For the calculation of the relative bioavailability of intranasal betahistine compared to peroral betahistine, the area under the concentration-time curve (AUC) determined in Example 3 was compared to the AUC determined in a study with oral betahistine in healthy volunteers described in Barak et al. (Journal of Psychopharmacology, 2016, Vol. 30(3) 237-241). In brief, in this study, forty-eight healthy women were recruited and randomized to receive per os (i.e. orally) either betahistine 144 mg/day (48 mg t.i.d.) or matching placebo for 4 weeks. Their mean weight was 60.2 kg in the active-treated group (n=24) and 59.8 kg in the placebo group (n=24). Study medication (betahistine or matching placebo) was administered at least 30 minutes prior to eating. On Day 8, blood samples of 6 mL each were collected at 8 am, and 30, 60, 150 and 300 minutes thereafter. Plasma concentrations of betahistine and its metabolite 2-PAA were determined by high-performance liquid chromatography."}, "clinical": {"assay": "clinical", "conditions": "human", "experimental": "The safety and pharmacokinetic profile of intranasal betahistine with single and multiple dosing was evaluated in a single-site randomized, placebo-controlled Phase I dose-escalation trial. 72 healthy male and female subjects aged between 18 and 60 years and with a BMI of 18.5 to 30 kg/m^2 were enrolled. In one group, the subjects received single dose intranasal betahistine in four dose cohorts of 10, 20, 40 or 60 mg or multiple dose intranasal betahistine (three times daily for 3 days) in four dose cohorts of 5, 10, 20 or 40 mg (double blind). Subjects received first the single dose and then, following a wash-out period, the multiple doses with the exception of the 5 mg and 60 mg doses which were tested only under one dose regimen. For reference purposes, another group of subjects received single dose oral betahistine in four dose cohorts at 48, […], 192 or 384 mg (single blind).\nWith each actuation of the nasal spray, 100 μL were delivered (1 actuation at 50 mg/mL for 5 mg and at 200 mg/mL for 20 mg, respectively; 2 actuations at 50 mg/mL for 10 mg and at 200 mg/mL for 40 mg, respectively, into each nostril; 3 actuations at 200 mg/mL for 60 mg with 2 into one nostril and 1 into the other) while the subject was in an upright position.\nSerial blood samples were collected at various time points, starting at pre-dose and over a maximum of 72 hours following dosing.\nAll plasma samples were stored at −95 to −65° C. until all samples had been collected and sent in two separate shipments for analysis."}, "[6]": {"assay": "Single ascending-dose clinical trial of intranasal betahistine in healthy volunteers: safety and plasma pharmacokinetics", "conditions": "human; for tmax: median (range)", "protocol": "The safety and pharmacokinetic profile of intranasal betahistine was further evaluated in a double-blind, randomized, placebo-controlled, single ascending-dose clinical trial involving a total of 32 healthy male and female volunteers. The main inclusion criteria were that subjects had to be aged 18-45 years and show a body mass index within the range of 18-30 kg/m^2. Subjects were required to fast for 8 hours prior to study drug administration and for 2 hours post-dose.\nThe betahistine was supplied as a 50 and 200 mg/mL solution in a HDPE bottle and spray pump pack (Aptar Classic Line) that delivers an accurate 100 μL per actuation. The study drug was delivered into the right nostril of subjects while they were in a supine position. For the 5 and 20 mg doses, one application of 50 and 200 mg/mL, respectively, was needed, whereas for the 10 and 40 mg doses, two applications of 50 and 200 mg/mL were required.\nSerial blood samples were collected through 24 hours, following dosing on Day 1, at Day 4 and Day 7 to determine concentrations of betahistine and its main metabolite, 2-PAA in plasma. Plasma samples were assayed for BH content using validated procedures and methods. Blood samples (6 mL) were collected into tubes containing K2EDTA and were centrifuged at approximately 2000 g for 10 minutes at +4° C. and the resultant plasma transferred into 2 clean, labelled 2 mL cryovials. All plasma samples were stored at −70° C. or below until all samples had been collected and sent as a single batch for analysis. Aliquot 1 and 2 were sent as separate shipments. Concentrations were determined using liquid chromatographic tandem mass spectrometry (LC-MS/MS; SCIEX API 5000 for betahistine and SCIEX API 4000 for 2-PAA) with a validated method. Betahistine-^13CD3 dihydrochloride and 2-PAA-D4 hydrochloride served as internal standards. The standard calibration range—using a plasma sample volume of 0.2 and 0.1 mL, respectively—for betahistine was 10 to 800 pg/mL and for 2-PAA it was 2 to 2000 ng/mL. The limit of quantitation was 10 pg/mL for betahistine and 2.0 ng/mL for 2-PAA.\nIn case of betahistine, the method involved a liquid-liquid extraction; in case of 2-PAA it involved protein precipitation. For betahistine, plasma samples were extracted under basic conditions with an organic solvent; the organic phase was dried and reconstituted in reconstitution solvent. Approximately 0.120 mL of the aqueous layer was transferred into polypropylene vials for LC-MS/MS analysis. For 2-PAA plasma samples were precipitated with a mixture of organic solvents, supernatant was diluted and 0.120 mL was transferred into polypropylene vials for LC-MS/MS analysis. Sample analysis was conducted using reversed phase chromatography.\nFor each subject who completed the study, plasma concentration-time data of betahistine and 2-PAA were used for the calculation of the following pharmacokinetic parameters:\nDose normalized parameters Cmax/Dose and AUC/Dose were also calculated."}}, "note": "Marks after values point to notes of the source that are not given here.", "data": [{"smiles": "O=C(O)Cc1ccccn1", "note": "[Variant 2-PAA, 2-pyridylacetic acid]", "values": [{"measurement": "Tmax, median (min-max)", "setting": "[1]; male, beagle, dog, in vivo", "result": "0.13 (0.08-0.33) hr"}, {"measurement": "last measurable values", "setting": "[2]; both, beagle, dog, in vivo", "result": 24, "unit": "hours post-dose"}, {"measurement": "pharmacological activity", "setting": "[3]", "result": "no pharmacological activity"}]}, {"smiles": "NCCc1ccccn1", "note": "[AEP, aminoethylpyridine]", "values": [{"measurement": "plasma concentration", "setting": "[4]; AEP, human, intranasal betahistine 60 mg", "result": "barely detectable"}]}, {"smiles": "OCCc1ccccn1", "note": "[HEP, hydroxyethylpyridine]", "values": [{"measurement": "median tmax", "setting": "[4]; in vivo", "result": 15, "unit": "min"}]}, {"smiles": "CNCCc1ccccn1", "note": "[betahistine]", "values": [{"measurement": "salivation", "setting": "[1]; both, beagle, dog, in vivo", "result": "noted in most animals"}, {"measurement": "sneezing, animals affected", "setting": "[1]; both, beagle, dog, in vivo", "result": "2/8"}, {"measurement": "tolerability", "setting": "[1]; dogs, single intranasal 40-120 mg", "result": "well tolerated"}, {"measurement": "Cmax", "setting": "[1]; female, beagle, dog, in vivo, iv, 0.44 mg/kg", "result": "4.37 ± 8.84", "unit": "ng/mL"}, {"measurement": "relative bioavailability of oral vs. intranasal administration", "setting": "[5]; Barak et al. oral vs Example 3 intranasal", "result": "approximately 2.4%"}, {"measurement": "bioavailability intranasal relative to oral", "setting": "[5]; Example 3 single intranasal 5-40 mg vs Barak et al. oral 48 mg", "result": "20-40 times"}, {"measurement": "Rel. Bioavail. intranasal relative to oral", "setting": "[5]; intranasal 40 mg vs oral 48 mg (Barak et al.)", "result": 41.1}, {"measurement": "apparent half-life", "setting": "clinical; both, in vivo", "result": "less than 1 h"}, {"measurement": "exposure AUC0-6 unadjusted for dose, intranasal vs oral 48 mg", "setting": "clinical; both, in vivo", "result": "5-29 fold"}, {"measurement": "nasal pain, share of administrations", "setting": "clinical; both, in vivo", "result": 4, "unit": "%"}, {"measurement": "post-nasal drip, share of administrations", "setting": "clinical; both, in vivo", "result": 5, "unit": "%"}, {"measurement": "runny nose, share of administrations", "setting": "clinical; both, in vivo", "result": 6, "unit": "%"}, {"measurement": "time of maximum concentrations", "setting": "clinical; both, in vivo", "result": "5 to 20", "unit": "min"}, {"measurement": "accumulation over time", "setting": "clinical; both, in vivo, 3 days", "result": "No accumulation"}, {"measurement": "time of maximum concentrations", "setting": "clinical; both, in vivo, po", "result": "15 to 30", "unit": "min"}, {"measurement": "tmax", "setting": "clinical; both, in vivo, tmax, Median (range)", "result": 15, "unit": "min"}, {"measurement": "dose up to which safety and tolerability could be shown", "setting": "clinical; intranasal multiple dosing three times daily over three days", "result": "up to 40 mg"}, {"measurement": "dose up to which safety and tolerability could be shown", "setting": "clinical; intranasal single doses", "result": "up to 60 mg"}, {"measurement": "peak concentration in plasma", "setting": "[6]; betahistine, single intranasal 20 mg", "result": 4.1, "unit": "ng/mL"}, {"measurement": "tmax", "setting": "[6]; single intranasal 5 mg", "result": "0.208 (0.08-0.33) hr"}, {"measurement": "t1/2", "setting": "[6]; single intranasal 10 mg, mean, n=3", "result": "0.883 ^a hr"}, {"measurement": "tmax", "setting": "[6]; single intranasal 10 mg", "result": "0.167 (0.08-0.17) hr"}, {"measurement": "tmax", "setting": "[6]; single intranasal 40 mg", "result": "0.125 (0.08-0.27) hr"}, {"measurement": "tolerability", "setting": "[2]; beagle dogs, intranasal, single dose 4-80 mg and 14-day repeat dose 12-240 mg/day", "result": "well tolerated"}, {"measurement": "body weights, clinical pathology and gross necropsy findings", "setting": "[2]; both, beagle, dog, in vivo", "result": "unremarkable"}, {"measurement": "microscopic findings", "setting": "[2]; both, beagle, dog, in vivo", "result": "No adverse treatment-related microscopic findings"}, {"measurement": "decline of plasma concentration", "setting": "[2]; both, beagle, dog, in vivo, 1 h", "result": "more than 90%"}]}]}
